Reference: PubChem BioAssay (NCI)
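Five concentrations, 48 hours, 96-well plates. Here, GI50 denotes the concentration required for 50% inhibition of growth. The concentration for full growth arrest is given as TGI.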

Key:
Assay in all cases: DTP human tumour cell line panel, 48 h
HOP-92 NSCLC = tested on: HOP-92 NSCLC
HOP-62 NSCLC = tested on: HOP-62 NSCLC
SN12C renal = tested on: SN12C renal
EKVX NSCLC = tested on: EKVX NSCLC
SNB-19 CNS = tested on: SNB-19 CNS
CCRF-CEM leukemia = tested on: CCRF-CEM leukemia
NCI-H522 lung = tested on: NCI-H522 lung
KM20L2 colon = tested on: KM20L2 colon
ACHN renal = tested on: ACHN renal
SNB-75 CNS = tested on: SNB-75 CNS
NCI-H23 lung = tested on: NCI-H23 lung
SK-MEL-2 melanoma = tested on: SK-MEL-2 melanoma
SF-295 CNS = tested on: SF-295 CNS
SK-OV-3 ovarian = tested on: SK-OV-3 ovarian
TK-10 renal = tested on: TK-10 renal
OVCAR-5 ovarian = tested on: OVCAR-5 ovarian
OVCAR-3 ovarian = tested on: OVCAR-3 ovarian
A549 NSCLC = tested on: A549 NSCLC
UACC-62 melanoma = tested on: UACC-62 melanoma
SF-268 CNS = tested on: SF-268 CNS
DLD-1 colon = tested on: DLD-1 colon
UACC-257 melanoma = tested on: UACC-257 melanoma
SNB-78 CNS = tested on: SNB-78 CNS
K-562 leukemia = tested on: K-562 leukemia
HCC-2998 colon = tested on: HCC-2998 colon
NCI-H460 lung = tested on: NCI-H460 lung
KM12 colon = tested on: KM12 colon
786-0 renal = tested on: 786-0 renal
SK-MEL-5 melanoma = tested on: SK-MEL-5 melanoma
UO-31 renal = tested on: UO-31 renal
SF-539 CNS = tested on: SF-539 CNS
OVCAR-4 ovarian = tested on: OVCAR-4 ovarian
MOLT-4 leukemia = tested on: MOLT-4 leukemia
HCT-116 colon = tested on: HCT-116 colon
LXFL 529 NSCLC = tested on: LXFL 529 NSCLC
SW-620 colon = tested on: SW-620 colon
HT29 colon = tested on: HT29 colon
U251 CNS = tested on: U251 CNS
RPMI-8226 leukemia = tested on: RPMI-8226 leukemia
COLO 205 colon = tested on: COLO 205 colon
SK-MEL-28 melanoma = tested on: SK-MEL-28 melanoma
HL-60(TB) leukemia = tested on: HL-60(TB) leukemia
DMS 273 small cell lung = tested on: DMS 273 small cell lung
LOX IMVI melanoma = tested on: LOX IMVI melanoma
HCT-15 colon = tested on: HCT-15 colon
A498 renal = tested on: A498 renal
IGROV1 ovarian = tested on: IGROV1 ovarian
M14 melanoma = tested on: M14 melanoma
MALME-3M melanoma = tested on: MALME-3M melanoma
OVCAR-8 ovarian = tested on: OVCAR-8 ovarian

SMILES: N.N.N.N.O=S([O-])[O-].[Co+3].[N-]=[N+]=[N-]
- GI50 (HOP-92 NSCLC): > 100 µM
- TGI (HOP-92 NSCLC): > 100 µM
- GI50 (HOP-62 NSCLC): > 100 µM
- TGI (HOP-62 NSCLC): > 100 µM
- GI50 (SN12C renal): > 100 µM
- TGI (SN12C renal): > 100 µM
- GI50 (EKVX NSCLC): > 100 µM
- TGI (EKVX NSCLC): > 100 µM
- GI50 (SNB-19 CNS): > 100 µM
- TGI (SNB-19 CNS): > 100 µM
- GI50 (CCRF-CEM leukemia): > 100 µM
- TGI (CCRF-CEM leukemia): > 100 µM
- GI50 (NCI-H522 lung): 42.3 µM
- TGI (NCI-H522 lung): > 100 µM
- GI50 (KM20L2 colon): > 100 µM
- TGI (KM20L2 colon): > 100 µM
- GI50 (ACHN renal): > 100 µM
- TGI (ACHN renal): > 100 µM
- GI50 (SNB-75 CNS): 70.4 µM
- TGI (SNB-75 CNS): > 100 µM
- GI50 (NCI-H23 lung): > 100 µM
- TGI (NCI-H23 lung): > 100 µM
- GI50 (SK-MEL-2 melanoma): > 100 µM
- TGI (SK-MEL-2 melanoma): > 100 µM
- GI50 (SF-295 CNS): > 100 µM
- TGI (SF-295 CNS): > 100 µM
- GI50 (SK-OV-3 ovarian): > 100 µM
- TGI (SK-OV-3 ovarian): > 100 µM
- GI50 (TK-10 renal): > 100 µM
- TGI (TK-10 renal): > 100 µM
- GI50 (OVCAR-5 ovarian): > 100 µM
- TGI (OVCAR-5 ovarian): > 100 µM
- GI50 (OVCAR-3 ovarian): > 100 µM
- TGI (OVCAR-3 ovarian): > 100 µM
- GI50 (A549 NSCLC): > 100 µM
- TGI (A549 NSCLC): > 100 µM
- GI50 (UACC-62 melanoma): > 100 µM
- TGI (UACC-62 melanoma): > 100 µM
- GI50 (SF-268 CNS): > 100 µM
- TGI (SF-268 CNS): > 100 µM
- GI50 (DLD-1 colon): > 100 µM
- TGI (DLD-1 colon): > 100 µM
- GI50 (UACC-257 melanoma): > 100 µM
- TGI (UACC-257 melanoma): > 100 µM
- GI50 (SNB-78 CNS): > 100 µM
- TGI (SNB-78 CNS): > 100 µM
- GI50 (K-562 leukemia): > 100 µM
- TGI (K-562 leukemia): > 100 µM
- GI50 (HCC-2998 colon): > 100 µM
- TGI (HCC-2998 colon): > 100 µM
- GI50 (NCI-H460 lung): > 100 µM
- TGI (NCI-H460 lung): > 100 µM
- GI50 (KM12 colon): > 100 µM
- TGI (KM12 colon): > 100 µM
- GI50 (786-0 renal): > 100 µM
- TGI (786-0 renal): > 100 µM
- GI50 (SK-MEL-5 melanoma): > 100 µM
- TGI (SK-MEL-5 melanoma): > 100 µM
- GI50 (UO-31 renal): > 100 µM
- TGI (UO-31 renal): > 100 µM
- GI50 (SF-539 CNS): > 100 µM
- TGI (SF-539 CNS): > 100 µM
- GI50 (OVCAR-4 ovarian): > 100 µM
- TGI (OVCAR-4 ovarian): > 100 µM
- GI50 (MOLT-4 leukemia): > 100 µM
- TGI (MOLT-4 leukemia): > 100 µM
- GI50 (HCT-116 colon): > 100 µM
- TGI (HCT-116 colon): > 100 µM
- GI50 (LXFL 529 NSCLC): > 100 µM
- TGI (LXFL 529 NSCLC): > 100 µM
- GI50 (SW-620 colon): > 100 µM
- TGI (SW-620 colon): > 100 µM
- GI50 (HT29 colon): > 100 µM
- TGI (HT29 colon): > 100 µM
- GI50 (U251 CNS): > 100 µM
- TGI (U251 CNS): > 100 µM
- GI50 (RPMI-8226 leukemia): > 100 µM
- TGI (RPMI-8226 leukemia): > 100 µM
- GI50 (COLO 205 colon): > 100 µM
- TGI (COLO 205 colon): > 100 µM
- GI50 (SK-MEL-28 melanoma): > 100 µM
- TGI (SK-MEL-28 melanoma): > 100 µM
- GI50 (HL-60(TB) leukemia): > 100 µM
- TGI (HL-60(TB) leukemia): > 100 µM
- GI50 (DMS 273 small cell lung): > 100 µM
- TGI (DMS 273 small cell lung): > 100 µM
- GI50 (LOX IMVI melanoma): > 100 µM
- TGI (LOX IMVI melanoma): > 100 µM
- GI50 (HCT-15 colon): > 100 µM
- TGI (HCT-15 colon): > 100 µM
- GI50 (A498 renal): > 100 µM
- TGI (A498 renal): > 100 µM
- GI50 (IGROV1 ovarian): > 100 µM
- TGI (IGROV1 ovarian): > 100 µM
- GI50 (M14 melanoma): > 100 µM
- TGI (M14 melanoma): > 100 µM
- GI50 (MALME-3M melanoma): > 100 µM
- TGI (MALME-3M melanoma): > 100 µM
- GI50 (OVCAR-8 ovarian): > 100 µM
- TGI (OVCAR-8 ovarian): > 100 µM
